Measured values: publication PMC7138916 (Pharmacology Research & Perspectives, 2020)

What was measured:
[1] = Rat pharmacokinetic study, IV single bolus; conditions: male, Sprague-Dawley, in vivo, iv
[2] = cited from earlier work
[3] = Rat brain and blood microdialysis at steady state; conditions: for concentration at 6 h: male, Sprague-Dawley, in vivo, iv, C m,brain, steady‐state unbound concentration in brain (right striatum), microdialysis, IV infusion, mean ± SD
[4] = Bidirectional permeability in parental MDCK cells; type: in vitro ADME, Canine; conditions: dog, MDCK
MDCK cell line = assay: Bidirectional permeability in parental MDCK cells; type: in vitro ADME, Canine; conditions: MDCK cell line, 1 μmol/L, 2 hours, 10 uM Cyclosporin A, n = 4
[5] = tested on: efflux transporters (eg, P‐gp, BCRP, MRPs); assay: Classification as efflux transporter substrate; conditions: for Efflux transporter substrate: Yes/No; for Class (based on membrane permeability and ER value): parental MDCK, MDR1‐MDCK, and Caco‐2 cell lines
Caco‐2 cell line = assay: Bidirectional permeability and efflux ratio in Caco‐2 cells; type: in vitro ADME, human; conditions: Caco‐2 cell line, P app(B–A)/P app(A–B)
[6] = as above; type: in vitro ADME, human; conditions: human; for Papp A→B at 2 h, 5 μmol/L / Papp B→A at 2 h, 5 μmol/L: Caco-2; for efflux ratio at 2 h, 5 μmol/L: Caco-2, Efflux ratio, Caco‐2 cell line, P app(B–A)/P app(A–B)
human P‐gp (MDR1‐MDCK) = human P‐gp (MDR1‐MDCK) (Homo sapiens, UniProt P08183); assay: Bidirectional permeability and efflux ratio in MDR1‐MDCK cells; type: in vitro ADME; conditions: MDR1‐MDCK cell line, P app(B–A)/P app(A–B)
human P-gp (MDR1) = human P-gp (MDR1) (Homo sapiens, UniProt P08183); assay: as above; type: in vitro ADME; conditions: human; for Papp A→B at 2 h, 1 μmol/L / Papp B→A at 2 h, 1 μmol/L: MDCK-MDR1
MDCK‐MDR1‐NKI cell lines = conditions: cited from earlier work
[7] = rat; ref 20 (Summerfield et al); cited from earlier work
P‐gp = conditions: cited from earlier work

Chain of human P-gp (MDR1) (P08183 whole entry): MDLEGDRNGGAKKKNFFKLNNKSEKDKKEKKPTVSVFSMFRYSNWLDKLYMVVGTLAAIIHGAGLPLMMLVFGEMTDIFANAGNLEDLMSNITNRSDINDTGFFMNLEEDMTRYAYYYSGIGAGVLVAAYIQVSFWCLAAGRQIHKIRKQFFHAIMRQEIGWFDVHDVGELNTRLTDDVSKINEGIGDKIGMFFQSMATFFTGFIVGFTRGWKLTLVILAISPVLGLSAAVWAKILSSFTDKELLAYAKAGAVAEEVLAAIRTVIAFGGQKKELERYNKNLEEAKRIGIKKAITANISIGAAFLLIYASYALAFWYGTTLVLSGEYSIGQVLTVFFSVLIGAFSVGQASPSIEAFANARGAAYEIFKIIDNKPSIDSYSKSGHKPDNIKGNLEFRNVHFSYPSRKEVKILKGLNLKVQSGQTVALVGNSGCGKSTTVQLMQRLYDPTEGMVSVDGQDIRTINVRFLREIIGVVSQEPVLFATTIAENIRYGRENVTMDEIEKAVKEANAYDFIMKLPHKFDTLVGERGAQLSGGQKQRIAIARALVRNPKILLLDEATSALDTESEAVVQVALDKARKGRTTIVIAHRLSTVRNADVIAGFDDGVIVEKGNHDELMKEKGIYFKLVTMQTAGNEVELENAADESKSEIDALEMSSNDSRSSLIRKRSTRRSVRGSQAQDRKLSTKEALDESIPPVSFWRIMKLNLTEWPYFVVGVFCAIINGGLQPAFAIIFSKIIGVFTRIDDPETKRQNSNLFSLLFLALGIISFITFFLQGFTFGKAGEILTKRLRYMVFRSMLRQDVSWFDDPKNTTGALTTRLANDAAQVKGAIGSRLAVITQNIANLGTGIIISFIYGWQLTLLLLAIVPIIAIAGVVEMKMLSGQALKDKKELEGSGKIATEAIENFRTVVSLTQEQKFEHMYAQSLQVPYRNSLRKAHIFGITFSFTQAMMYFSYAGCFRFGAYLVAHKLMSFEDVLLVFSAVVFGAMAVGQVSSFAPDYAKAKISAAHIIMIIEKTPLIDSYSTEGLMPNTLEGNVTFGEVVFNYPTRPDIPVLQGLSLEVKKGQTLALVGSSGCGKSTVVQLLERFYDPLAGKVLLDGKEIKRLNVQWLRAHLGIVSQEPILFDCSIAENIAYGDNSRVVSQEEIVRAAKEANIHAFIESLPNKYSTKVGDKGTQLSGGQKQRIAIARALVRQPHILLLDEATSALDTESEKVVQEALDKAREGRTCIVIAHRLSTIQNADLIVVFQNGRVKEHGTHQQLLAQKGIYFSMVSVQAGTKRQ
Chain of human P‐gp (MDR1‐MDCK) (P08183 whole entry): as above

SMILES	Vd [1] [L/kg]	clearance [1] [mL/min/kg]	half-life [1] [min]	concentration at 6 h ([3]; rat) [nM]	Papp A→B at 2 h, 1 μmol/L [4] [×10⁻⁶ cm/s]	Papp B→A at 2 h, 1 μmol/L [4] [×10⁻⁶ cm/s]	Papp at 2 h, 1 μmol/L [4] [×10⁻⁶ cm/s]	Efflux transporter substrate [5]	Class (based on membrane permeability and ER value) [5]	Papp A→B at 2 h, 5 μmol/L [6] [×10⁻⁶ cm/s]	Papp B→A at 2 h, 5 μmol/L [6] [×10⁻⁶ cm/s]	Papp A→B at 2 h, 1 μmol/L (human P-gp (MDR1)) [×10⁻⁶ cm/s]	Papp B→A at 2 h, 1 μmol/L (human P-gp (MDR1)) [×10⁻⁶ cm/s]	reported mean values of rat plasma CL [2] [mL/min/kg]	further results
Nc1nnc(-c2cccc(Cl)c2Cl)c(N)n1 [Lamotrigine, lamotrigine]	1.86 ± 0.18	1.48 ± 0.21	936 ± 180	757 ± 42										0.83	C csf higher than C m,brain by ([3]; rat, steady state): 45%
CC1COc2c(N3CCN(C)CC3)c(F)cc3c(=O)c(C(=O)O)cn1c23 (stereo not shown) [Ofloxacin, ofloxacin]	5.08 ± 2.99	32.5 ± 4.9	379 ± 200	678 ± 293											
CNS(=O)(=O)Cc1ccc2[nH]cc(CCN(C)C)c2c1 [Sumatriptan, sumatriptan]	3.11 ± 0.03	59.1 ± 5.8	58.8 ± 0.66	845 ± 439	1.07 ± 0.08	2.21 ± 0.37	1.64 ± 0.66	Yes	Class II	0.904 ± 0.283	1.91 ± 0.6	0.683 ± 0.04	1.54 ± 0.59		efflux ratio at 2 h, 5 μmol/L [6]: 2.12; efflux ratio at 2 h, 1 μmol/L (human P-gp (MDR1); MDCK-MDR1, Efflux ratio, MDR1‐MDCK cell line, P app(B–A)/P app(A–B)): 2.25; steady‐state unbound concentration in brain lower than in plasma [7]: about 20 fold
Cc1c(O)cccc1C(=O)N[C@@H](CSc1ccccc1)[C@H](O)CN1C[C@H]2CCCC[C@H]2C[C@H]1C(=O)NC(C)(C)C [neflinivir]															permeability (P‐gp): 0.000197 cm/s

The next lines start with results.

Vd [1] [L/kg]	clearance [1] [mL/min/kg]	half-life [1] [min]	concentration at 6 h ([3]; rat) [nM]	Papp A→B at 2 h, 1 μmol/L [4] [×10⁻⁶ cm/s]	Papp B→A at 2 h, 1 μmol/L [4] [×10⁻⁶ cm/s]	Papp at 2 h, 1 μmol/L [4] [×10⁻⁶ cm/s]	Efflux transporter substrate [5]	Class (based on membrane permeability and ER value) [5]	Papp A→B at 2 h, 5 μmol/L [6] [×10⁻⁶ cm/s]	Papp B→A at 2 h, 5 μmol/L [6] [×10⁻⁶ cm/s]	Papp A→B at 2 h, 1 μmol/L (human P-gp (MDR1)) [×10⁻⁶ cm/s]	Papp B→A at 2 h, 1 μmol/L (human P-gp (MDR1)) [×10⁻⁶ cm/s]	SMILES	reported mean values of rat plasma CL [2] [mL/min/kg]	further results
0.637 ± 0.272	14 ± 1.8	298 ± 69	31.3 ± 19.3	0.452 ± 0.092	0.793 ± 0.148	0.623 ± 0.215	Yes (?)	Class II	0.392 ± 0.207	0.707 ± 0.443	0.709 ± 0.236	0.442 ± 0.252	Nc1nc2[nH]cc(CCc3ccc(C(=O)N[C@@H](CCC(=O)O)C(=O)O)cc3)c2c(=O)[nH]1 [Pemetrexed, pemetrexed]		Average P app (MDCK cell line): 0.623 10^−6 cm/s; Efflux ratio (Caco‐2 cell line): 1.81; efflux ratio at 2 h, 5 μmol/L [6]: < 2; Efflux ratio (human P‐gp (MDR1‐MDCK)): 0.623; Efflux ratio (human P‐gp (MDR1‐MDCK); listed as pemetrexed): less than 2.0; difference in steady‐state unbound drug concentrations between the brain and blood ([3]; brain lower than blood, rat microdialysis): 86 fold
4.64 ± 0.7	82.8 ± 12.5	56.6 ± 3.72	1490 ± 240	13.7 ± 5.3	8.37 ± 3.8	11 ± 5.2	No	Class I	21.2 ± 3.6	13.8 ± 0.5	18.9 ± 2.6	16.8 ± 0.5	CC(C)NCC(O)COc1cccc2ccccc12 (stereo not shown) [Propranolol, propranolol]	68	Average P app (MDCK cell line): about 11.0 10^−6 cm/s; Efflux ratio (Caco‐2 cell line): 0.654; Efflux ratio (Caco‐2 cell line; listed as propranolol): less than 2.0
			552 ± 126										C=C[C@H]1C[N@@]2CC[C@H]1C[C@@H]2[C@@H](O)c1ccnc2ccc(OC)cc12 [Quinidine, quinidine]		permeability (MDCK‐MDR1‐NKI cell lines): about 60 × 10^−6 cm/sec
0.453 ± 0.048	1.58 ± 0.52	205 ± 61.2	4520 ± 2110										Cn1c(=O)c2[nH]cnc2n(C)c1=O [Theophylline, theophylline]	2.39	
